In patent US8927500B2, “Peptidomimetic macrocycles” (Aileron Therapeutics, Inc., priority 2012, dated 2015):
Where two headings read alike, the source gives them in different places. Where a SMILES comes first, the peptide text is derived from it. Bridges are numbered along the chain shown (N, C = ends). [ ]: non-standard residue; d: D form. R8 = C=CCCCCCC[C@@](C)(N)C(=O)O; Cba = N[C@@H](CC1CCC1)C(=O)O; S5 = C=CCCC[C@](C)(N)C(=O)O

Experiments:
[1] = target: T1, MDMX (Homo sapiens, UniProt O15151); assay: Competitive fluorescence polarization assay for MDMX; format: binding; settings: competitive FP assay; for IC50: read-out: IC50 (MDMX); for Ki: read-out: Ki (MDMX)
T1 sequence (O15151 1-125): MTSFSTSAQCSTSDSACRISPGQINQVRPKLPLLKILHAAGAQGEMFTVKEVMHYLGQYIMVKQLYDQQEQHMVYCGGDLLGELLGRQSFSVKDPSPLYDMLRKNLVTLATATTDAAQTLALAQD

[2] = target: MDM2 (Homo sapiens, UniProt Q00987); assay: Competitive fluorescence polarization assay for MDM2; format: binding; settings: competitive FP assay, MDM2; for IC50: read-out: IC50 (MDM2)
Sequence of MDM2 (Q00987 1-125): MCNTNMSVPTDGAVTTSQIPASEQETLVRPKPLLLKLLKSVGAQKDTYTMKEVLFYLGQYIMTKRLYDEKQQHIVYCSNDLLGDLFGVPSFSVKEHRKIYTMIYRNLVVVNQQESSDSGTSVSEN

Row | SMILES | IC50 [1] [nM] | Ki [1] [nM] | IC50 [2] [nM] | Ki ([2]; read-out: Ki (MDM2)) [nM] | Ki ([2]; Ki (MDM2)) [nM]
1 | CC(=O)N[C@@H](CC(C)C)C(=O)N[C@H](C(=O)N[C@@H](Cc1ccccc1)C(=O)N[C@]1(C)CCCCCCC=CCCC[C@@](C)(C(=O)N[C@@H](CO)C(=O)N[C@@H](C)C(=O)N[C@@H](C)C(N)=O)NC(=O)[C@H](CC2CCC2)NC(=O)[C@H](CCC(N)=O)NC(=O)[C@H](C)NC(=O)[C@H](Cc2c[nH]c3cc(Cl)ccc23)NC(=O)[C@H](Cc2ccc(O)cc2)NC(=O)[C@H](CCC(=O)O)NC1=O)[C@@H](C)O [compound 332] | 10 to 100 | < 10 | – | – | –
2 | CC(=O)N[C@@H](CC(C)C)C(=O)N[C@H](C(=O)N[C@@H](Cc1ccc(F)c(F)c1)C(=O)N[C@]1(C)CCCCCCC=CCCC[C@@](C)(C(=O)N[C@@H](CO)C(=O)N[C@@H](C)C(=O)N[C@@H](C)C(N)=O)NC(=O)[C@H](CC2CCC2)NC(=O)[C@H](CCC(N)=O)NC(=O)[C@H](C)NC(=O)[C@H](Cc2c[nH]c3ccccc23)NC(=O)[C@H](Cc2ccc(O)cc2)NC(=O)[C@H](CCC(=O)O)NC1=O)[C@@H](C)O (single isomer, unassigned) [compound 289] | 10 to 100 | 10 to 100 | – | – | –
3 | CC(=O)N[C@@H](CC(C)C)C(=O)N[C@H](C(=O)N[C@@H](Cc1ccccc1)C(=O)N[C@]1(C)CCCCCCC=CCCC[C@@](C)(C(=O)N[C@@H](C)C(=O)N[C@@H](C)C(=O)NC(C)(C)C(=O)N[C@H](C(N)=O)C(C)C)NC(=O)[C@H](CC(C)C)NC(=O)[C@H](CCC(N)=O)NC(=O)[C@H](C)NC(=O)[C@H](Cc2c[nH]c3ccccc23)NC(=O)[C@H](Cc2ccc(O)cc2)NC(=O)[C@H](C)NC1=O)[C@@H](C)O (single isomer, unassigned) [compound 23] | – | – | 100 to 1000 | 10 to 100 | –
4 | CC(=O)N[C@@H](CC(C)C)C(=O)N[C@H](C(=O)N[C@@H](Cc1ccccc1)C(=O)N[C@]1(C)CCCCCCC=CCCC[C@@](C)(C(=O)N[C@H](C)C(N)=O)NC(=O)[C@H](CC(C)C)NC(=O)[C@H](CCC(N)=O)NC(=O)[C@H](C)NC(=O)[C@H](Cc2c[nH]c3ccccc23)NC(=O)[C@H](Cc2ccc(O)cc2)NC(=O)[C@H](CCC(=O)O)NC1=O)[C@@H](C)O [compound 589] (Ac-LTF[R8]EYWAQL[S5][dA]-NH2; staple 4-11) | – | – | – | – | < 10
5 | CC(=O)N[C@@H](CC(C)C)C(=O)N[C@H](C(=O)N[C@@H](Cc1ccccc1)C(=O)N[C@]1(C)CCCCCCC=CCCC[C@@](C)(C(=O)N[C@@H](C)C(=O)N[C@@H](C)C(=O)N[C@@H](C)C(=O)N[C@@H](C)C(=O)N[C@H](C)C(N)=O)NC(=O)[C@H](CCC(C)C)NC(=O)[C@H](CCC(N)=O)NC(=O)[C@H](C)NC(=O)[C@H](Cc2c[nH]c3ccccc23)NC(=O)[C@H](Cc2ccc(O)cc2)NC(=O)[C@H](C)NC1=O)[C@@H](C)O (single isomer, unassigned) [compound 314] | 10 to 100 | < 10 | – | – | –
6 | CC(=O)N[C@@H](CC(C)C)C(=O)N[C@H](C(=O)N[C@@H](Cc1ccccc1)C(=O)N[C@]1(C)CCCCCCC=CCCC[C@@](C)(C(=O)N[C@@H](C)C(=O)N[C@@H](C)C(=O)NC(C)(C)C(=O)N[C@H](C(N)=O)C(C)C)NC(=O)[C@H](CC(C)C)NC(=O)[C@H](CCC(N)=O)NC(=O)[C@H](C)NC(=O)[C@H](Cc2c[nH]c3ccccc23)NC(=O)[C@H](Cc2ccc(O)cc2)NC(=O)[C@H](C)NC1=O)[C@@H](C)O (single isomer, unassigned) [compound 24] | – | – | 10 to 100 | < 10 | –
7 | CCCCCCCCCC(=O)N[C@@H](CC(C)C)C(=O)N[C@H](C(=O)N[C@@H](Cc1ccccc1)C(=O)N[C@]1(C)CCCCCCC=CCCC[C@@](C)(C(=O)N[C@@H](CO)C(=O)N[C@@H](C)C(=O)N[C@@H](C)C(N)=O)NC(=O)[C@H](CCC(C)C)NC(=O)[C@H](CCC(N)=O)NC(=O)[C@H](C)NC(=O)[C@H](Cc2c[nH]c3ccccc23)NC(=O)[C@H](Cc2ccc(O)cc2)NC(=O)[C@H](CCC(=O)O)NC1=O)[C@@H](C)O [compound 282] | > 1000 | > 1000 | – | – | –
8 | CC(=O)N[C@@H](CC(C)C)C(=O)N[C@H](C(=O)N[C@@H](Cc1ccccc1)C(=O)N[C@]1(C)CCCCCCC=CCCC[C@@](C)(C(=O)N[C@@H](C)C(=O)N[C@@H](C)C(=O)N[C@@H](C)C(=O)N[C@@H](C)C(=O)N[C@H](C)C(N)=O)NC(=O)[C@H](CCC(C)C)NC(=O)[C@H](CCC(N)=O)NC(=O)[C@H](C)NC(=O)[C@H](Cc2c[nH]c3ccccc23)NC(=O)[C@H](Cc2ccc(O)cc2)NC(=O)[C@H](C)NC1=O)[C@@H](C)O (single isomer, unassigned) [compound 313] | 100 to 1000 | 10 to 100 | – | – | –

More lines, main results first:

Row | IC50 [1] [nM] | Ki [1] [nM] | IC50 [2] [nM] | Ki ([2]; read-out: Ki (MDM2)) [nM] | SMILES | Ki ([2]; Ki (MDM2)) [nM]
9 | < 10 | < 10 | < 10 | < 10 | CCCC[C@H](NC(=O)[C@H](C)NC(=O)[C@H](C)NC(=O)[C@]1(C)CCCC=CCCCCCC[C@@](C)(NC(=O)[C@H](Cc2ccccc2)NC(=O)[C@@H](NC(=O)[C@H](CC(C)C)NC(C)=O)[C@@H](C)O)C(=O)N[C@@H](C)C(=O)N[C@@H](Cc2ccc(O)cc2)C(=O)N[C@@H](Cc2c[nH]c3ccccc23)C(=O)N[C@@H](C)C(=O)N[C@@H](CCC(N)=O)C(=O)N[C@@H](CC(C)C)C(=O)N1)C(=O)N(C)CC(N)=O (single isomer, unassigned) [compound 402] | –
10 | – | – | – | < 10 | CC(=O)N[C@@H](CC(C)C)C(=O)N[C@H](C(=O)N[C@@H](Cc1ccccc1)C(=O)N[C@]1(C)CCCCCCC=CCCC[C@@](C)(C(=O)N[C@@H](C)C(=O)N[C@@H](C)C(=O)N[C@@H](C)C(=O)N[C@@H](C)C(=O)NC(C)(C)C(=O)N[C@H](C)C(N)=O)NC(=O)[C@H](CC(C)C)NC(=O)[C@H](CCC(N)=O)NC(=O)[C@H](C)NC(=O)[C@H](Cc2c[nH]c3ccccc23)NC(=O)[C@H](Cc2ccc(O)cc2)NC(=O)[C@H](CCC(=O)O)NC1=O)[C@@H](C)O (single isomer, unassigned) [compound 566] | –
11 | – | 10 to 100 | – | – | CC(C)C[C@H](NC(=O)c1ccc(F)cc1)C(=O)N[C@H](C(=O)N[C@@H](Cc1ccccc1)C(=O)N[C@]1(C)CCCCCCC=CCCC[C@@](C)(C(=O)N[C@@H](CO)C(=O)N[C@@H](C)C(=O)N[C@@H](C)C(N)=O)NC(=O)[C@H](CC2CCC2)NC(=O)[C@H](CCC(N)=O)NC(=O)[C@H](C)NC(=O)[C@H](Cc2c[nH]c3ccccc23)NC(=O)[C@H](Cc2ccc(O)cc2)NC(=O)[C@H](CCC(=O)O)NC1=O)[C@@H](C)O [compound 597] | –
12 | 10 to 100 | < 10 | – | – | CC(C)C[C@H](NC(=O)CN(C)C)C(=O)N[C@H](C(=O)N[C@@H](Cc1ccccc1)C(=O)N[C@]1(C)CCCCCCC=CCCC[C@@](C)(C(=O)N[C@@H](CO)C(=O)N[C@@H](C)C(=O)N[C@@H](C)C(N)=O)NC(=O)[C@H](CC2CCC2)NC(=O)[C@H](CCC(N)=O)NC(=O)[C@H](C)NC(=O)[C@H](Cc2c[nH]c3ccccc23)NC(=O)[C@H](Cc2ccc(O)cc2)NC(=O)[C@H](CCC(=O)O)NC1=O)[C@@H](C)O [compound 435] | –
13 | – | – | < 10 | < 10 | CCCC[C@H](NC(=O)CN(C)C(=O)[C@H](C)NC(=O)[C@]1(C)CCCC=CCCCCCC[C@@](C)(NC(=O)[C@H](Cc2ccccc2)NC(=O)[C@@H](NC(=O)[C@H](CC(C)C)NC(C)=O)[C@@H](C)O)C(=O)N[C@@H](C)C(=O)N[C@@H](Cc2ccc(O)cc2)C(=O)N[C@@H](Cc2c[nH]c3ccccc23)C(=O)N[C@@H](C)C(=O)N[C@@H](CCC(N)=O)C(=O)N[C@@H](CC(C)C)C(=O)N1)C(=O)N[C@@H](C)C(N)=O (single isomer, unassigned) [compound 396] | –
14 | – | – | 10 to 100 | < 10 | CCCC[C@H](NC(=O)C(C)(C)NC(=O)[C@H](C)NC(=O)[C@]1(C)CCCC=CCCCCCC[C@@](C)(NC(=O)[C@H](Cc2ccccc2)NC(=O)[C@@H](NC(=O)[C@H](CC(C)C)NC(C)=O)[C@@H](C)O)C(=O)N[C@@H](C)C(=O)N[C@@H](Cc2ccc(O)cc2)C(=O)N[C@@H](Cc2c[nH]c3ccccc23)C(=O)N[C@@H](C)C(=O)N[C@@H](CCC(N)=O)C(=O)N[C@@H](CC(C)C)C(=O)N1)C(=O)N[C@@H](C)C(N)=O (single isomer, unassigned) [compound 392] | –
15 | – | – | – | 10 to 100 | CC(=O)N[C@@H](CC(C)C)C(=O)N[C@H](C(=O)N[C@@H](Cc1ccccc1)C(=O)N[C@]1(C)CCCCCCC=CCCC[C@@](C)(C(=O)N[C@@H](C)C(=O)N[C@@H](C)C(=O)N[C@@H](C)C(=O)N[C@@H](C)C(=O)NC(C)(C)C(=O)N[C@H](C)C(N)=O)NC(=O)[C@H](CC(C)C)NC(=O)[C@H](CCC(N)=O)NC(=O)[C@H](C)NC(=O)[C@H](Cc2c[nH]c3ccccc23)NC(=O)[C@H](Cc2ccc(O)cc2)NC(=O)[C@H](CCC(=O)O)NC1=O)[C@@H](C)O (single isomer, unassigned) [compound 565] | –
16 | – | – | – | > 1000 | CC(=O)N[C@@H](CC(C)C)C(=O)N[C@H](C(=O)N[C@@H](Cc1ccccc1)C(=O)N[C@]1(C)CCCCCCC=CCCC[C@@](C)(C(=O)N[C@@H](CO)C(N)=O)NC(=O)[C@H](CC2CCC2)NC(=O)[C@H](CCC(N)=O)NC(=O)[C@H](C)NC(=O)[C@H](Cc2c[nH]c3ccccc23)NC(=O)[C@H](Cc2ccc(O)cc2)NC(=O)[C@H](CCC(=O)O)NC1=O)[C@@H](C)O [compound 595] (Ac-LTF[R8]EYWAQ[Cba][S5]S-NH2; staple 4-11) | –
17 | – | 10 to 100 | – | – | CC(C)C[C@H](NC(=O)CCNC(=O)c1ccc2c(c1)C(=O)OC21c2ccc(N(C)C)cc2Oc2cc(N(C)C)ccc21)C(=O)N[C@H](C(=O)N[C@@H](Cc1ccccc1)C(=O)N[C@]1(C)CCCCCCC=CCCC[C@@](C)(C(=O)N[C@@H](CO)C(=O)N[C@@H](C)C(=O)N[C@@H](C)C(N)=O)NC(=O)[C@H](CC2CCC2)NC(=O)[C@H](CCC(N)=O)NC(=O)[C@H](C)NC(=O)[C@H](Cc2c[nH]c3ccccc23)NC(=O)[C@H](Cc2ccc(O)cc2)NC(=O)[C@H](CCC(=O)O)NC1=O)[C@@H](C)O [compound 686] | –
